Test results published in ChEMBL document CHEMBL1201861, “Genomics of Drug Sensitity in Cancer screening data, Wellcome Trust Sanger Institute”.

Assays:
Assay in all cases: cells
RXF 393 = assay type: functional, cell-based, Homo sapiens; conditions: Homo sapiens, RXF 393;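 further: growth inhibition of human RXF 393 cells, read out with a cell viability assay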
Description: SANGER: Inhibition of human RXF393 cell growth in a cell viability assay.

HCE-4 = assay type: functional, cell-based; conditions: Homo sapiens;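 further: cell viability assay measuring inhibition of growth in the human HCE-4 cell line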
Description: SANGER: Inhibition of human HCE-4 cell growth in a cell viability assay.

HCC1187 = assay type: functional, cell-based, Homo sapiens; conditions: Homo sapiens, HCC1187;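 further: growth inhibition of HCC1187 cells, read out with a cell viability assay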
Calu-6 = assay type: functional, cell-based, Homo sapiens; conditions: Homo sapiens, Calu-6;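 further: growth of human Calu-6 cells, read out by a cell viability assay, IC50 marking inhibition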
Description: SANGER: Inhibition of human Calu-6 cell growth in a cell viability assay.

NCI-H1355 = assay type: functional, cell-based, Homo sapiens; conditions: Homo sapiens, NCI-H1355;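 further: growth inhibition of human NCI-H1355 cells, read out by a cell viability assay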
Description: SANGER: Inhibition of human NCI-H1355 cell growth in a cell viability assay.

NCI-H446 = assay type: functional, cell-based, Homo sapiens; conditions: Homo sapiens, NCI-H446;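 further: growth inhibition of NCI-H446 cells determined by a cell viability assay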
Description: SANGER: Inhibition of human NCI-H446 cell growth in a cell viability assay.

TE-8 = assay type: functional, cell-based, Homo sapiens; conditions: Homo sapiens, TE-8;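 further: growth inhibition of TE-8 cells, measured with a cell viability readout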
Description: SANGER: Inhibition of human TE-8 cell growth in a cell viability assay.

NCI-H1092 = assay type: functional, cell-based, Homo sapiens; conditions: Homo sapiens, NCI-H1092;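 further: cell growth inhibition measured with a cell viability assay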
Description: SANGER: Inhibition of human NCI-H1092 cell growth in a cell viability assay.

IST-SL1 = assay type: functional, cell-based, Homo sapiens; conditions: Homo sapiens, IST-SL1;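 further: growth inhibition of human IST-SL1 cells, read out with a cell viability assay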
Description: SANGER: Inhibition of human IST-SL1 cell growth in a cell viability assay.

BT-474 = assay type: functional, cell-based, Homo sapiens; conditions: Homo sapiens, BT-474
Description: SANGER: Inhibition of human BT-474 cell growth in a cell viability assay.

TE-12 = assay type: functional, cell-based, Homo sapiens; conditions: Homo sapiens, TE-12;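 further: growth inhibition of TE-12 cells, read out by a cell viability assay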
Description: SANGER: Inhibition of human TE-12 cell growth in a cell viability assay.

SK-MEL-2 = assay type: functional, cell-based, Homo sapiens; conditions: Homo sapiens, SK-MEL-2;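 further: growth inhibition of human SK-MEL-2 cells measured with a cell viability assay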
Description: SANGER: Inhibition of human SK-MEL-2 cell growth in a cell viability assay.

SK-N-DZ = assay type: functional, cell-based, Homo sapiens; conditions: Homo sapiens, SK-N-DZ;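 further: growth inhibition of the cancer cell line, read out through a viability assay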
Description: SANGER: Inhibition of human SK-N-DZ cell growth in a cell viability assay.

ES1 = assay type: functional, cell-based, Homo sapiens; conditions: Homo sapiens, ES1;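 further: growth inhibition of ES1 cells, read out with a cell viability assay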
NCI-H1395 = assay type: functional, cell-based, Homo sapiens; conditions: Homo sapiens, NCI-H1395;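 further: cell viability assay read-out quantifying reduced proliferation of human NCI-H1395 cells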
Description: SANGER: Inhibition of human NCI-H1395 cell growth in a cell viability assay.

U-266 = assay type: functional, cell-based, Homo sapiens; conditions: Homo sapiens, U-266
OMC-1 = assay type: functional, cell-based, Homo sapiens; conditions: Homo sapiens, OMC-1;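 further: growth inhibition of the OMC-1 cell line, measured by a cell viability assay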
Description: SANGER: Inhibition of human OMC-1 cell growth in a cell viability assay.

EW-3 = assay type: functional, cell-based, Homo sapiens; conditions: Homo sapiens, EW-3;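 further: cell viability assay read-out, IC50 reflects inhibition of growth of the EW-3 cells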
Description: SANGER: Inhibition of human EW-3 cell growth in a cell viability assay.

NCI-H720 = assay type: functional, cell-based, Homo sapiens; conditions: Homo sapiens, NCI-H720;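 further: growth inhibition of human NCI-H720 cells determined by a cell viability assay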
Description: SANGER: Inhibition of human NCI-H720 cell growth in a cell viability assay.

ALL-PO = assay type: functional, cell-based, Homo sapiens; conditions: Homo sapiens, ALL-PO;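 further: growth inhibition of ALL-PO cells, read out by a cell viability assay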
Description: SANGER: Inhibition of human ALL-PO cell growth in a cell viability assay.

P30-OHK = assay type: functional, cell-based, Homo sapiens; conditions: Homo sapiens, P30-OHK;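 further: growth inhibition of the P30-OHK cell line, read out with a cell viability assay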
Description: SANGER: Inhibition of human P30-OHK cell growth in a cell viability assay.

LOX IMVI = assay type: functional, cell-based, Homo sapiens; conditions: Homo sapiens, LOX IMVI
Description: SANGER: Inhibition of human LOXIMVI cell growth in a cell viability assay.

NCI-H226 = assay type: functional, cell-based, Homo sapiens; conditions: Homo sapiens, NCI-H226;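 further: cell viability read-out used to gauge growth inhibition of the cells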
Description: SANGER: Inhibition of human NCI-H226 cell growth in a cell viability assay.

MV4-11 = assay type: functional, cell-based, Homo sapiens, MV-4-11; conditions: Homo sapiens, MV4-11;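 further: cell viability readout measuring growth inhibition of human MV-4-11 cells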
Description: SANGER: Inhibition of human MV-4-11 cell growth in a cell viability assay.

K562 = assay type: functional, cell-based, Homo sapiens; conditions: Homo sapiens, K562
NCI-H2126 = assay type: functional, cell-based, Homo sapiens; conditions: Homo sapiens, NCI-H2126;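 further: growth inhibition of the cancer cell line, determined with a cell viability readout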
SK-LMS-1 = assay type: functional, cell-based, Homo sapiens; conditions: Homo sapiens, SK-LMS-1;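 further: growth inhibition of human SK-LMS-1 cells, read out with a cell viability assay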
MPP-89 = assay type: functional, cell-based, Homo sapiens; conditions: Homo sapiens, MPP-89;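 further: growth inhibition of human MPP-89 cells, read out with a cell viability assay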
Description: SANGER: Inhibition of human MPP-89 cell growth in a cell viability assay.

NB5 = assay type: functional, cell-based, Homo sapiens; conditions: Homo sapiens, NB5;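 further: growth inhibition of NB5 cells, read out as cell viability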
Description: SANGER: Inhibition of human NB5 cell growth in a cell viability assay.

DJM-1 = assay type: functional, cell-based, Homo sapiens; conditions: Homo sapiens, DJM-1;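 further: growth inhibition of human DJM-1 cells, read out by a cell viability assay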
BE-13 = assay type: functional, cell-based, Homo sapiens; conditions: Homo sapiens, BE-13;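 further: growth inhibition of human BE-13 cells, measured with a cell viability assay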
Description: SANGER: Inhibition of human BE-13 cell growth in a cell viability assay.

A253 cell line = assay type: functional, cell-based, Homo sapiens; conditions: Homo sapiens, A253;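 further: growth inhibition of A253 cells, read out with a cell viability assay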
Description: SANGER: Inhibition of human A253 cell growth in a cell viability assay.

GCIY = assay type: functional, cell-based, Homo sapiens; conditions: Homo sapiens, GCIY;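 further: growth inhibition of the human GCIY cell line, read out by a cell viability assay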
Description: SANGER: Inhibition of human GCIY cell growth in a cell viability assay.

NCI-H1770 = assay type: functional, cell-based, Homo sapiens; conditions: Homo sapiens, NCI-H1770;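 further: growth inhibition of NCI-H1770 cells determined with a viability readout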
Description: SANGER: Inhibition of human NCI-H1770 cell growth in a cell viability assay.

VA-ES-BJ = assay type: functional, cell-based, Homo sapiens; conditions: Homo sapiens, VA-ES-BJ;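 further: growth inhibition of the VA-ES-BJ cell line, read out by a cell viability assay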
Description: SANGER: Inhibition of human VA-ES-BJ cell growth in a cell viability assay.

MHH-NB-11 = assay type: functional, cell-based, Homo sapiens; conditions: Homo sapiens, MHH-NB-11;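 further: growth inhibition of human MHH-NB-11 cells, read out by a cell viability assay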
Description: SANGER: Inhibition of human MHH-NB-11 cell growth in a cell viability assay.

CGTH-W-1 = assay type: functional, cell-based, Homo sapiens; conditions: Homo sapiens, CGTH-W-1;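 further: growth inhibition of human CGTH-W-1 cells measured by cell viability assay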
Description: SANGER: Inhibition of human CGTH-W-1 cell growth in a cell viability assay.

SW 954 = assay type: functional, cell-based, Homo sapiens; conditions: Homo sapiens, SW 954;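 further: growth inhibition of SW954 human cancer cells, read out as cell viability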
Description: SANGER: Inhibition of human SW954 cell growth in a cell viability assay.

MOLT-4 = assay type: functional, cell-based, Homo sapiens; conditions: Homo sapiens, MOLT-4;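 further: growth inhibition of MOLT-4 cells, determined with a cell viability readout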
IA-LM = assay type: functional, cell-based; conditions: Homo sapiens;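 further: cell viability assay measuring growth inhibition of human IA-LM cells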
Description: SANGER: Inhibition of human IA-LM cell growth in a cell viability assay.

NB10 = assay type: functional, cell-based, Homo sapiens; conditions: Homo sapiens, NB10;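 further: growth inhibition of NB10 cells, read out by a cell viability assay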
Description: SANGER: Inhibition of human NB10 cell growth in a cell viability assay.

GI-ME-N = assay type: functional, cell-based, Homo sapiens; conditions: Homo sapiens, GI-ME-N;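 further: growth inhibition of human GI-ME-N cells, read out with a cell viability assay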
Description: SANGER: Inhibition of human GI-ME-N cell growth in a cell viability assay.

HEL = assay type: functional, cell-based, Homo sapiens; conditions: Homo sapiens, HEL;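 further: growth inhibition of HEL cells, read out with a cell viability assay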
Description: SANGER: Inhibition of human HEL cell growth in a cell viability assay.

COR-L88 = assay type: functional, cell-based, Homo sapiens; conditions: Homo sapiens, COR-L88;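 further: growth inhibition of COR-L88 cells, read out with a cell viability assay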
Description: SANGER: Inhibition of human COR-L88 cell growth in a cell viability assay.

EW-13 = assay type: functional, cell-based, Homo sapiens; conditions: Homo sapiens, EW-13;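 further: growth inhibition of EW-13 cells, read out with a cell viability assay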
Description: SANGER: Inhibition of human EW-13 cell growth in a cell viability assay.

MN-60 = assay type: functional, cell-based, Homo sapiens; conditions: Homo sapiens, MN-60;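 further: growth inhibition of the MN-60 cell line, determined with a cell viability assay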
Description: SANGER: Inhibition of human MN-60 cell growth in a cell viability assay.

NCI-H1648 = assay type: functional, cell-based, Homo sapiens; conditions: Homo sapiens, NCI-H1648;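 further: cell viability assay measuring inhibition of NCI-H1648 cell growth, from the Sanger screening data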
Description: SANGER: Inhibition of human NCI-H1648 cell growth in a cell viability assay.

KALS-1 = assay type: functional, cell-based, Homo sapiens; conditions: Homo sapiens, KALS-1;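 further: growth inhibition of KALS-1 cells, determined with a cell viability assay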
Description: SANGER: Inhibition of human KALS-1 cell growth in a cell viability assay.

ACN = assay type: functional, cell-based, Homo sapiens; conditions: Homo sapiens, ACN;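 further: growth inhibition of the human ACN cell line, read out via cell viability testing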
Description: SANGER: Inhibition of human ACN cell growth in a cell viability assay.

CCCCCCCCCCCC1=C(O)C(=O)C=C(O)C1=O [EMBELIN]
IC50 (RXF 393): > 32 µM | IC50 (HCE-4): 8.56 µM | IC50 (HCC1187): > 32 µM | IC50 (Calu-6): 4.83 µM | IC50 (NCI-H1355): 10.1 µM | IC50 (NCI-H446): > 32 µM | IC50 (TE-8): 11 µM | IC50 (NCI-H1092): > 32 µM | IC50 (IST-SL1): > 32 µM | IC50 (BT-474): > 32 µM | IC50 (TE-12): 14.4 µM | IC50 (SK-MEL-2): 11.7 µM | IC50 (SK-N-DZ; read-out: IC50): > 32 µM | IC50 (ES1): 7.81 µM | IC50 (NCI-H1395): > 32 µM | IC50 (U-266): > 32 µM | IC50 (OMC-1): 12.1 µM | IC50 (EW-3): > 32 µM | IC50 (NCI-H720): > 32 µM | IC50 (ALL-PO): 3.65 µM | IC50 (P30-OHK): 6.13 µM | IC50 (LOX IMVI): 17.5 µM | IC50 (NCI-H226): 17.9 µM | IC50 (MV4-11): > 32 µM | IC50 (K562): 31.7 µM | IC50 (NCI-H2126): 27.9 µM | IC50 (SK-LMS-1): 5.64 µM | IC50 (MPP-89): 25.1 µM | IC50 (NB5): 22.4 µM | IC50 (DJM-1): 8.8 µM | IC50 (BE-13): 22.9 µM | IC50 (A253 cell line): 7.75 µM | IC50 (GCIY): 10.1 µM | IC50 (NCI-H1770): > 32 µM | IC50 (VA-ES-BJ): 10.7 µM | IC50 (MHH-NB-11): > 32 µM | IC50 (CGTH-W-1): 16.8 µM | IC50 (SW 954): 31.1 µM | IC50 (MOLT-4): 10.6 µM | IC50 (IA-LM): 2230 nM | IC50 (NB10): > 32 µM | IC50 (GI-ME-N): > 32 µM | IC50 (HEL): 11.2 µM | IC50 (COR-L88): > 32 µM | IC50 (EW-13; read-out: IC50): 9.67 µM | IC50 (MN-60): > 32 µM | IC50 (NCI-H1648): 9.3 µM | IC50 (KALS-1; read-out: IC50): 14.9 µM | IC50 (ACN): 5.86 µM

Cc1ccc(NC(=O)c2ccc(CN3CCN(C)CC3)cc2)cc1Nc1nccc(-c2cccnc2)n1 [IMATINIB]
IC50 (RXF 393): > 2 µM | IC50 (HCE-4): > 2 µM | IC50 (HCC1187): > 2 µM | IC50 (Calu-6): > 2 µM | IC50 (NCI-H1355): > 2 µM | IC50 (NCI-H446): > 2 µM | IC50 (TE-8): > 2 µM | IC50 (NCI-H1092): > 2 µM | IC50 (IST-SL1): > 2 µM | IC50 (BT-474): > 2 µM | IC50 (TE-12): > 2 µM | IC50 (SK-MEL-2): > 2 µM | IC50 (SK-N-DZ): > 2 µM | IC50 (ES1): > 2 µM | IC50 (NCI-H1395): > 2 µM | IC50 (U-266): > 2 µM | IC50 (OMC-1): > 2 µM | IC50 (EW-3): > 2 µM | IC50 (NCI-H720): > 2 µM | IC50 (ALL-PO): > 2 µM | IC50 (P30-OHK): > 2 µM | IC50 (LOX IMVI): > 2 µM | IC50 (NCI-H226): > 2 µM | IC50 (MV4-11): > 2 µM | IC50 (K562): 0.224 µM | IC50 (NCI-H2126): > 2 µM | IC50 (SK-LMS-1): > 2 µM | IC50 (MPP-89): > 2 µM | IC50 (NB5): > 2 µM | IC50 (DJM-1): > 2 µM | IC50 (BE-13): > 2 µM | IC50 (A253 cell line): > 2 µM | IC50 (GCIY): > 2 µM | IC50 (NCI-H1770): > 2 µM | IC50 (VA-ES-BJ): > 2 µM | IC50 (MHH-NB-11): > 2 µM | IC50 (CGTH-W-1): 0.384 µM | IC50 (SW 954): > 2 µM | IC50 (MOLT-4): > 2 µM | IC50 (IA-LM): > 2000 nM | IC50 (NB10): > 2 µM | IC50 (GI-ME-N): > 2 µM | IC50 (HEL): > 2 µM | IC50 (COR-L88): > 2 µM | IC50 (EW-13): > 2 µM | IC50 (MN-60): > 2 µM | IC50 (NCI-H1648): > 2 µM | IC50 (KALS-1): > 2 µM | IC50 (ACN): > 2 µM
